# Source: PMC9617622 (Journal of medicinal chemistry, 2021)
# Legend:
# D3R [1] = biological target: T1, D3R (Homo sapiens, UniProt P35462); conditions: for binding affinity at D3R (in words) / D2R/D3R preference (in words): result in words; for D2R/D3R preference (in words): D3R v. D2R binding; for decrease in binding affinity at D3R compared to eticlopride: relative to eticlopride; for Ki difference, O-alkylated v. N-alkylated linker with the same SP: D3R, 48 v. 15 and 49 v. 13
# human D2L receptor = human D2L receptor (Homo sapiens, UniProt P14416); conditions: for binding affinity at D2R (in words): result in words; for decrease in binding affinity at D2R compared to eticlopride: relative to eticlopride
# D3R [2] = biological target: T1, D3R; conditions: result in words; compared to full agonist quinpirole and antagonist eticlopride
# Chain of human D2L receptor (P14416 whole entry): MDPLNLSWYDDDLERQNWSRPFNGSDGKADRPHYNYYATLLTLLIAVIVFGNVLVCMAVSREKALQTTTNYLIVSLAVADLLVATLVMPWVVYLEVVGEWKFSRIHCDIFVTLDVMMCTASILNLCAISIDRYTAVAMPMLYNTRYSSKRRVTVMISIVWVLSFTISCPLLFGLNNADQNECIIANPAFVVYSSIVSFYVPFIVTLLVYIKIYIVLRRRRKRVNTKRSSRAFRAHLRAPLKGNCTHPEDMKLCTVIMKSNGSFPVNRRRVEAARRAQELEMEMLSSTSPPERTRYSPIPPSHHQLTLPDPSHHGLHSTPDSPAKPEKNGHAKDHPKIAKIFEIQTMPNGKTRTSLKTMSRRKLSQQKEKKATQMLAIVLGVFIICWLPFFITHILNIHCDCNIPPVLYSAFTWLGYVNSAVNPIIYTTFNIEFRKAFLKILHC
# T1 sequence (P35462 whole entry): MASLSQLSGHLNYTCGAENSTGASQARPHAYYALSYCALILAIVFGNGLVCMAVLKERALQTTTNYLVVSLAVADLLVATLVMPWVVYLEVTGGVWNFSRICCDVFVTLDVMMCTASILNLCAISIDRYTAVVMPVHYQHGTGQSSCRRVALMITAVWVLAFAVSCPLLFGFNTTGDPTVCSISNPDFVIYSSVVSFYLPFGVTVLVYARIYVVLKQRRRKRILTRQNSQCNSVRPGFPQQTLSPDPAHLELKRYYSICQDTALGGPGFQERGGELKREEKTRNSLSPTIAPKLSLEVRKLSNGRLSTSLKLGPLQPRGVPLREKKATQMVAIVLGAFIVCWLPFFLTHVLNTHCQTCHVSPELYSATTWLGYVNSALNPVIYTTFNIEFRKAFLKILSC
smiles,measurement,setting,value
"CCc1cc(Cl)c(OC)c(C(=O)NC[C@@H]2C[C@@H](OCCCCO)CN2)c1O [compound 51, 3-Chloro-5-ethyl-6-hydroxy-N-(((2S,4R)-4-(4-hydroxybutoxy)pyrrolidin-2-yl)methyl)-2-methoxybenzamide]",binding affinity at D3R (in words),D3R [1],low nanomolar range
same,binding affinity at D2R (in words),human D2L receptor,low nanomolar range
"CCc1cc(Cl)c(OC)c(C(=O)NC[C@@H]2CCCN2CCCCNC(=O)c2cc3ccccc3o2)c1O [compound 13, (S)-N-(4-(2-((3-Chloro-5-ethyl-6-hydroxy-2-methoxybenzamido)methyl)pyrrolidin-1-yl)butyl) benzofuran-2-carboxamide]",D2R/D3R preference (in words),D3R [1],modest D3R preference was not seen
"CCc1cc(Cl)c(OC)c(C(=O)NC[C@@H]2CCCN2)c1O.Cl [compound 5, (S)-3-chloro-5-ethyl-6-hydroxy-2-methoxy-N-(pyrrolidin-2-ylmethyl)benzamide hydrochloride, reference compound]",decrease in binding affinity at D3R compared to eticlopride,D3R [1],4 fold
same,decrease in binding affinity at D2R compared to eticlopride,human D2L receptor,19 fold
CCc1cc(Cl)c(OC)c(C(=O)NC[C@@H]2CCCN2CC)c1O [eticlopride],functional efficacy at D3R (Go BRET activation),D3R [2],reference antagonist
"CCc1cc(Cl)c(OC)c(C(=O)NC[C@@H]2CCCN2CCc2c(C)nc3n(c2=O)CCCC3)c1O [compound 10, (S)-3-Chloro-5-ethyl-6-hydroxy-2-methoxy-N-((1-(2-(2-methyl-4-oxo-6,7,8,9-tetrahydro-4H-pyrido[1,2-a]pyrimidin-3-yl)ethyl)pyrrolidin-2-yl)methyl)benzamide]",D2R/D3R preference (in words),D3R [1],equiactive at D2R and D3R
"CCc1cc(Cl)c(OC)c(C(=O)NC[C@@H]2C[C@@H](OCCCCNC(=O)c3cc4ccccc4o3)CN2CC)c1O [compound 49, N-(4-(((3R,5S)-5-((3-chloro-5-ethyl-6-hydroxy-2-methoxybenzamido)methyl)-1-ethylpyrrolidin-3-yl)oxy)butyl)benzofuran-2-carboxamide]","Ki difference, O-alkylated v. N-alkylated linker with the same SP",D3R [1],~ 31 fold
"CCc1cc(Cl)c(OC)c(C(=O)NC[C@@H]2C[C@@H](OCCCCOCc3ccccc3)CN2)c1O [50b, N-(((2S,4R)-4-(4-(Benzyloxy)butoxy)pyrrolidin-2-yl)methyl)-3-chloro-5-ethyl-6-hydroxy-2-methoxybenzamide]",binding affinity at D3R (in words),D3R [1],low nanomolar range
same,binding affinity at D2R (in words),human D2L receptor,low nanomolar range
"CCc1cc(Cl)c(OC)c(C(=O)NC[C@@H]2CCCN2Cc2ccccc2)c1OCc1ccccc1 [compound 8, (S)-2-(Benzyloxy)-N-((1-benzylpyrrolidin-2-yl)methyl)-5-chloro-3-ethyl-6-methoxybenzamide]",binding affinity at D3R (in words),D3R [1],low affinity
same,binding affinity at D2R (in words),human D2L receptor,low affinity
"CCc1cc(Cl)c(OC)c(C(=O)NC[C@@H]2C[C@@H](OCCCc3ccccc3)CN2)c1O [50a, 3-Chloro-5-ethyl-6-hydroxy-2-methoxy-N-(((2S,4R)-4-(3-phenylpropoxy)pyrrolidin-2-yl)methyl)benzamide]",binding affinity at D3R (in words),D3R [1],low nanomolar range
same,binding affinity at D2R (in words),human D2L receptor,low nanomolar range
"CCCN1CCC[C@H]1CNC(=O)c1c(O)c(CC)cc(Cl)c1OC [compound 6, (S)-3-Chloro-5-ethyl-6-hydroxy-2-methoxy-N-((1-propylpyrrolidin-2-yl)methyl)benzamide]",decrease in binding affinity at D3R compared to eticlopride,D3R [1],2.6 fold
same,decrease in binding affinity at D2R compared to eticlopride,human D2L receptor,6 fold
"CCc1cc(Cl)c(OC)c(C(=O)NC[C@@H]2CCCN2CCCCOc2ccc3c(c2)NC(=O)CC3)c1O [compound 11, (S)-3-Chloro-5-ethyl-6-hydroxy-2-methoxy-N-((1-(4-((2-oxo-1,2,3,4-tetrahydroquinolin-7-yl)oxy)butyl)pyrrolidin-2-yl)methyl)benzamide]",preference for D3R v. D2R,D3R [1]; ratio of Ki D2R to Ki D3R,3.6 fold
"CCc1cc(Cl)c(OC)c(C(=O)NC[C@@H]2C[C@@H](OCCCCNC(=O)c3cc4ccccc4[nH]3)CN2CC)c1O [compound 48, N-(4-(((3R,5S)-5-((3-Chloro-5-ethyl-6-hydroxy-2-methoxybenzamido)methyl)-1-ethylpyrrolidin-3-yl)oxy)butyl)-1H-indole-2-carboxamide]","Ki difference, O-alkylated v. N-alkylated linker with the same SP",D3R [1],~ 56 fold
"CCc1cc(Cl)c(OC)c(C(=O)NC[C@@H]2CCCN2Cc2ccccc2)c1O [compound 7, (S)-N-((1-Benzylpyrrolidin-2-yl)methyl)-3-chloro-5-ethyl-6-hydroxy-2-methoxybenzamide]",decrease in binding affinity at D3R compared to eticlopride,D3R [1],268 fold
same,decrease in binding affinity at D2R compared to eticlopride,human D2L receptor,1800 fold
